Laboratory results published in ChEMBL document CHEMBL3600292, “Anti-HIV screening for cell-penetrating peptides using chloroquine and identification of anti-HIV peptides derived from matrix proteins” (Bioorg Med Chem, 2015).
Starred links: 1 amine or outer side, 2 acyl side, 3 side chain; linkers in the order of their positions; H or OH if unused. Positions of bridges follow the written chain, without caps; N, C: chain ends. Non-standard residues stand in square brackets, D forms with d. Residues, ends and D or L forms follow the SMILES beside them. Chains are numbered I, II in the order given. *: point of attachment. Orn = NCCC[C@H](N)C(=O)O; X1 = O=C(C[*:1])[*:2]; Cam = NC(=O)C*

Tests used:
[1] = Cytotoxicity against human PM1 cells expressing CCR5 by MTT assay in presence of 5 uM of chloroquine; assay type: cell-based
[2] = Cytotoxicity against human MT4 cells by MTT assay in presence of 5 uM of chloroquine; assay type: cell-based
[3] = Cytotoxicity against human MT4 cells by MTT assay in presence of 2.5 uM of chloroquine; assay type: cell-based
[4] = system: Human immunodeficiency virus 1; assay: Antiviral activity against T-cell line-tropic HIV1 NL4-3 infected in human MT4 cells assessed as inhibition of virus-induced cytopathogenicity after 5 days by MTT assay; assay type: functional, organism-based; details: Human immunodeficiency virus 1, NL4-3, MT4, 120 h
[5] = Cytotoxicity against human MT4 cells by MTT assay; assay type: cell-based
[6] = Cytotoxicity against human MT4 cells by MTT assay in presence of 10 uM of chloroquine; assay type: cell-based
[7] = system: Human immunodeficiency virus 1; assay: Antiviral activity against T-cell line-tropic HIV1 NL4-3 infected in human MT4 cells assessed as inhibition of virus-induced cytopathogenicity after 5 days by MTT assay in presence of 5 uM of chloroquine; assay type: functional, organism-based; details: Human immunodeficiency virus 1, NL4-3, MT4, 120 h
[8] = system: Human immunodeficiency virus 1; assay: Antiviral activity against macrophage-tropic HIV1 NL(AD8) infected in human PM1 expressing CCR5 cells assessed as inhibition of virus-induced cytopathogenicity after 5 days by MTT assay in presence of 5 uM of chloroquine; assay type: functional, organism-based; details: Human immunodeficiency virus 1, NL(AD8), PM1/CCR5, 120 h
[9] = system: Human immunodeficiency virus 1; assay: Antiviral activity against T-cell line-tropic HIV1 NL4-3 infected in human MT4 cells assessed as inhibition of virus-induced cytopathogenicity after 5 days by MTT assay in presence of 2.5 uM of chloroquine; assay type: functional, organism-based; details: Human immunodeficiency virus 1, NL4-3, MT4, 120 h
[10] = system: Human immunodeficiency virus 1; assay: Antiviral activity against T-cell line-tropic HIV1 NL4-3 infected in human MT4 cells assessed as inhibition of virus-induced cytopathogenicity after 5 days by MTT assay in presence of 10 uM of chloroquine; assay type: functional, organism-based; details: Human immunodeficiency virus 1, NL4-3, MT4, 120 h

Row | SMILES | CC50 [1] [µM] | CC50 [2] [µM] | CC50 [3] [µM] | EC50 [4] [µM] | CC50 [5] [µM] | CC50 [6] [µM] | EC50 [7] [µM] | EC50 [8] [µM] | EC50 [9] [µM] | EC50 [10] [µM]
1 | Cc1cn([C@H]2C[C@H](N=[N+]=[N-])[C@@H](CO)O2)c(=O)[nH]c1=O [ZIDOVUDINE] | > 100 | > 100 | 27 | 0.12 | > 100 | 31 | 0.013 | 0.51 | 0.015 | –
2 | CC[C@H](C)[C@H](NC(=O)[C@H](CCCNC(=N)N)NC(=O)[C@H](CCC(N)=O)NC(=O)[C@H](Cc1cnc[nH]1)NC(=O)[C@@H](NC(=O)[C@H](CO)NC(=O)[C@H](Cc1ccc(O)cc1)NC(=O)[C@H](CC(C)C)NC(=O)[C@@H](NC(=O)[C@H](C)NC(=O)[C@@H](NC(=O)[C@@H](NC(C)=O)[C@@H](C)O)[C@@H](C)CC)C(C)C)C(C)C)C(=O)N[C@@H](CC(=O)O)C(=O)N[C@H](C(=O)N[C@@H](CCCCN)C(=O)NCC(=O)N[C@@H](CSCC(N)=O)C(N)=O)C(C)C (Ac-TIAVLYSVHQRIDVKGC(Cam)-NH2) | > 50 | 47 | > 50 | > 50 | > 50 | > 50 | 22 | > 50 | > 50 | 0.65
3 | CC[C@H](C)[C@H](NC(=O)[C@H](CCCNC(=N)N)NC(=O)[C@H](CCC(N)=O)NC(=O)[C@H](Cc1c[nH]cn1)NC(=O)[C@@H](NC(=O)[C@H](CO)NC(=O)[C@H](Cc1ccc(O)cc1)NC(=O)[C@H](CC(C)C)NC(=O)[C@@H](NC(=O)[C@H](C)NC(=O)[C@@H](NC(=O)[C@@H](NC(C)=O)[C@@H](C)O)[C@@H](C)CC)C(C)C)C(C)C)C(=O)N[C@@H](CC(=O)O)C(=O)N[C@H](C(=O)N[C@@H](CCCCN)C(=O)NCC(=O)N[C@@H](CSCC(=O)N[C@@H](CCCNC(=N)N)C(=O)N[C@@H](CCCN)C(=O)N[C@@H](CCCNC(=N)N)C(=O)N[C@@H](CCCN)C(=O)N[C@@H](CCCNC(=N)N)C(=O)N[C@@H](CCCN)C(=O)N[C@@H](CCCNC(=N)N)C(=O)N[C@@H](CCCN)C(N)=O)C(N)=O)C(C)C (I: Ac-TIAVLYSVHQRIDVKGC-NH2 / II: R[Orn]R[Orn]R[Orn]R[Orn]-NH2; linker I:17-II:N via X1) | 7.2 | 11 | 6.1 | 6.3 | 10 | 9.1 | 0.62 | 1.1 | 1.6 | 0.2
4 | c1cc(CN2CCCNCCNCCCNCC2)ccc1CN1CCCNCCNCCCNCC1 [PLERIXAFOR] | > 50 | > 50 | > 50 | 0.032 | > 50 | > 50 | 0.025 | > 50 | 0.039 | –
